Calls of active or inactive are those of the source.
Legend:
Mus musculus = species on record: Mus musculus; assay: Inhibition of mouse rolipram binding site at 10 uM
[1] = biological target: Adrenergic receptor alpha-2 (Rattus norvegicus) (UniProt P22086+P19328+P22909); assay: Inhibition of rat adrenergic alpha2 receptor at 10 uM
[2] = Inhibition of sodium channel
Rattus norvegicus [3] = assay: Antithrombotic activity in pentobarbital-anesthetized Sprague-Dawley rat assessed reduction in occlusion of arteries administered as initial 20 mg/kg, iv bolus dose followed by sustaining 20 mg/kg/h, iv dosing; type: functional, organism-based
Rattus norvegicus [4] = species on record: Rattus norvegicus; assay: Inhibition of rat choline transporter at 10 uM
Rattus norvegicus [5] = species on record: Rattus norvegicus; assay: Inhibition of rat AMPA receptor at 10 uM
[6] = biological target: Adrenergic receptor alpha-1 (Rattus norvegicus) (UniProt P15823+P23944+P43140); assay: Inhibition of rat adrenergic alpha1 receptor at 10 uM
Rattus norvegicus [7] = species on record: Rattus norvegicus; assay: Inhibition of rat opioid receptor at 10 uM
Rattus norvegicus [8] = species on record: Rattus norvegicus; assay: Inhibition of rat GABA transporter at 10 uM
cells = details: Homo sapiens, TC5
Rattus norvegicus [9] = species on record: Rattus norvegicus; assay: Inhibition of rat kainate receptor at 10 uM
Rattus norvegicus [10] = species on record: Rattus norvegicus; assay: Inhibition of rat chloride channel at 10 uM
[11] = Inhibition of sst receptor at 10 uM
Rattus norvegicus [12] = species on record: Rattus norvegicus; assay: animal or person; details: Sprague-Dawley, iv
[13] = biological target: Cholecystokinin receptor type A (Homo sapiens) (UniProt P32238); assay: Inhibition of human CCK1 receptor at 10 uM
Rattus norvegicus [14] = species on record: Rattus norvegicus; assay: Inhibition of rat 5-HT receptor at 10 uM
[15] = biological target: D(2) dopamine receptor (Homo sapiens) (UniProt P14416); assay: Inhibition of human dopamine D2S receptor at 10 uM
[16] = biological target: Muscarinic acetylcholine receptor (Rattus norvegicus) (UniProt P08482+P08483+P08485+P08911+P10980); assay: Inhibition of rat muscarinic receptor at 10 uM
[17] = biological target: Sodium-dependent dopamine transporter (Rattus norvegicus) (UniProt P23977); assay: Inhibition of rat dopamine transporter at 10 uM
Chain of Sodium-dependent dopamine transporter (Rattus norvegicus) (P23977 whole entry): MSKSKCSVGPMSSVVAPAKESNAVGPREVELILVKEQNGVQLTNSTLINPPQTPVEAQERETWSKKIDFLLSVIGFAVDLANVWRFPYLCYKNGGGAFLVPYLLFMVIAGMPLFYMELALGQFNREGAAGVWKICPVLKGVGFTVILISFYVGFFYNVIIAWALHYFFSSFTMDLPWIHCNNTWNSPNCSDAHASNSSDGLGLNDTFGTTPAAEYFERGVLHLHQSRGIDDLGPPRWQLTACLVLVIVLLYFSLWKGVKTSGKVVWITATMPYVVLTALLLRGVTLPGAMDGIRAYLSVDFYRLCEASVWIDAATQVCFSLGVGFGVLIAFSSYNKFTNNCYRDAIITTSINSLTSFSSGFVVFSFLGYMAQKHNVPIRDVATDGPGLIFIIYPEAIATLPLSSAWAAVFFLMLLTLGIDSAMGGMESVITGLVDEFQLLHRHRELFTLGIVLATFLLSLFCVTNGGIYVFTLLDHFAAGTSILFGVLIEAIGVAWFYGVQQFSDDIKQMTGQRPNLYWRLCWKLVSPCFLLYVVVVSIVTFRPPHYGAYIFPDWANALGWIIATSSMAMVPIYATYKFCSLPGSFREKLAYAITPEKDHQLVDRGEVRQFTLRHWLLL

[18] = biological target: Progesterone receptor (Homo sapiens) (UniProt P06401); assay: Inhibition of human progesterone receptor at 10 uM
Chain of Progesterone receptor (Homo sapiens) (P06401 whole entry): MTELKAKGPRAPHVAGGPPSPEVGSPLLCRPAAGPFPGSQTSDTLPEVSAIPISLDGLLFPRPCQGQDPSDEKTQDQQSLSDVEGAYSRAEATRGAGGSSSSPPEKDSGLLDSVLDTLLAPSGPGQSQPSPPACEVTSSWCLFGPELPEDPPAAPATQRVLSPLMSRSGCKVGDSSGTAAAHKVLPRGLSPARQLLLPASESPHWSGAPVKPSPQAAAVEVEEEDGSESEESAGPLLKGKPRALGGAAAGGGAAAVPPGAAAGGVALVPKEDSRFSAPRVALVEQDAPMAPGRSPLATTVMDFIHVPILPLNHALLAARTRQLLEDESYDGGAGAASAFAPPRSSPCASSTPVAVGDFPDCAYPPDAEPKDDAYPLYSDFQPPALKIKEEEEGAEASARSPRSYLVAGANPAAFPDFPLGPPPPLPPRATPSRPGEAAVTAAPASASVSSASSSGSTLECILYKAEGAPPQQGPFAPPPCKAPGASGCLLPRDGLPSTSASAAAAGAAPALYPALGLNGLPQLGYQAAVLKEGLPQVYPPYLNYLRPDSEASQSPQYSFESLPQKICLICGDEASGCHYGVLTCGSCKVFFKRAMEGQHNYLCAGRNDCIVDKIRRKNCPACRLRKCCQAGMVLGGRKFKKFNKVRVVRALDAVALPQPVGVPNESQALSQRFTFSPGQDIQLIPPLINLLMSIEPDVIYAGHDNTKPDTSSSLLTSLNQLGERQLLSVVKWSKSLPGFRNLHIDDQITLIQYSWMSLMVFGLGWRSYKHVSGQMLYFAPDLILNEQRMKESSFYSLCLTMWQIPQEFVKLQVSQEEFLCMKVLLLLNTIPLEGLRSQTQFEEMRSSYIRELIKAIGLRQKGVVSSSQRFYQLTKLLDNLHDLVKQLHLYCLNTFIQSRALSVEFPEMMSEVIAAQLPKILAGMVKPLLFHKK

[19] = Inhibition of trypsin
[20] = biological target: Adenosine receptor A1 (Homo sapiens) (UniProt P30542); assay: Inhibition of human adenosine A1 receptor at 10 uM
Chain of Adenosine receptor A1 (Homo sapiens) (P30542 whole entry): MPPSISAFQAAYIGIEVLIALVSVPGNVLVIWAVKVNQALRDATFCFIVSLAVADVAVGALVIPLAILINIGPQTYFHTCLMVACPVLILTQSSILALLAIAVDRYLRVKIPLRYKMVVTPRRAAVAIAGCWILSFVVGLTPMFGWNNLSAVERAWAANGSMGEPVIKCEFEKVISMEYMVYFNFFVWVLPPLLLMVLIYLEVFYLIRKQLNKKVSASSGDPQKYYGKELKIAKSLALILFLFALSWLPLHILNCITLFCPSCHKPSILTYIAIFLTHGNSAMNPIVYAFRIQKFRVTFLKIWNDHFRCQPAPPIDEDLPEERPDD

[21] = Inhibition of tryptase
Rattus norvegicus [22] = species on record: Rattus norvegicus; assay: animal or person; details: Sprague-Dawley, Vena cava, iv
[23] = biological target: Histamine H1 receptor (Cavia porcellus) (UniProt P31389); assay: Inhibition of guinea pig histamine H1 receptor at 10 uM
Rattus norvegicus [24] = assay: Antithrombotic activity in pentobarbital-anesthetized Sprague-Dawley rat assessed as improved blood flow in arterial thrombosis administered as initial bolus iv dosing plus sustaining iv infusion; type: functional, organism-based
[25] = biological target: Glutamate NMDA receptor (Rattus norvegicus) (UniProt P35439+Q00959+Q00960+Q00961+Q62645+Q8VHN2+Q9R1M7); assay: Inhibition of rat NMDA receptor at 10 uM; type: protein-complex assay
[26] = biological target: Glucocorticoid receptor (Homo sapiens) (UniProt P04150); assay: Inhibition of human glucocorticoid receptor at 10 uM
Rattus norvegicus [27] = species on record: Rattus norvegicus; assay: Inhibition of rat sodium channel site 2 at 10 uM
Rattus norvegicus [28] = species on record: Rattus norvegicus; assay: Inhibition of rat PCP receptor at 10 uM
Rattus norvegicus [29] = assay: Ex vivo anticoagulant activity in pentobarbital-anesthetized Sprague-Dawley rat assessed as prolongation of prothrombin time administered as initial bolus iv dosing followed by sustaining iv infusion; type: functional, organism-based
[30] = biological target: D(1A) dopamine receptor (Homo sapiens) (UniProt P21728); assay: Inhibition of human dopamine D1 receptor at 10 uM
Chain of D(1A) dopamine receptor (Homo sapiens) (P21728 whole entry): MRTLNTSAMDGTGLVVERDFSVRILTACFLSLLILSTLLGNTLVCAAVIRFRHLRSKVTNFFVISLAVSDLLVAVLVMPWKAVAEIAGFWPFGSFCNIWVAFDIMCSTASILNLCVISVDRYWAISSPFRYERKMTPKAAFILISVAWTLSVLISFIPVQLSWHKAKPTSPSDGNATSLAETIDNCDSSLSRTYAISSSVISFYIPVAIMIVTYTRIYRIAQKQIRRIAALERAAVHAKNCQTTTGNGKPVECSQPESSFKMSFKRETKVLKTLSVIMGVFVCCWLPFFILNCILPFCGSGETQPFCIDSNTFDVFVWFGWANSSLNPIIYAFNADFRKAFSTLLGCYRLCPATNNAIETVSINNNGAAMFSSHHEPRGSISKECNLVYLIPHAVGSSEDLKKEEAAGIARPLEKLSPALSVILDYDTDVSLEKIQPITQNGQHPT

[31] = biological target: Histamine H2 receptor (Cavia porcellus) (UniProt P47747); assay: Inhibition of guinea pig histamine H2 receptor at 10 uM
Chain of Histamine H2 receptor (Cavia porcellus) (P47747 whole entry): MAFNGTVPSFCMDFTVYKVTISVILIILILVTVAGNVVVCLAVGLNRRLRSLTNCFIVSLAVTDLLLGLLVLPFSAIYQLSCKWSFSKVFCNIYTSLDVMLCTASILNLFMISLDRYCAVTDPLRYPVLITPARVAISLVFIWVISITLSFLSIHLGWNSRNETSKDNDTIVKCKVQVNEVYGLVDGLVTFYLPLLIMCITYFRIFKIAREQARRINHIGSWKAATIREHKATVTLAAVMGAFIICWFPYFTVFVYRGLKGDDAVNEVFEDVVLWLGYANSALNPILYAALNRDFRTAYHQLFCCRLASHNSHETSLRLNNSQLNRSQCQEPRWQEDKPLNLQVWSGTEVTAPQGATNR

[32] = biological target: Estrogen receptor (Homo sapiens) (UniProt P03372); assay: Inhibition of human ERalpha receptor at 10 uM
Chain of Estrogen receptor (Homo sapiens) (P03372 whole entry): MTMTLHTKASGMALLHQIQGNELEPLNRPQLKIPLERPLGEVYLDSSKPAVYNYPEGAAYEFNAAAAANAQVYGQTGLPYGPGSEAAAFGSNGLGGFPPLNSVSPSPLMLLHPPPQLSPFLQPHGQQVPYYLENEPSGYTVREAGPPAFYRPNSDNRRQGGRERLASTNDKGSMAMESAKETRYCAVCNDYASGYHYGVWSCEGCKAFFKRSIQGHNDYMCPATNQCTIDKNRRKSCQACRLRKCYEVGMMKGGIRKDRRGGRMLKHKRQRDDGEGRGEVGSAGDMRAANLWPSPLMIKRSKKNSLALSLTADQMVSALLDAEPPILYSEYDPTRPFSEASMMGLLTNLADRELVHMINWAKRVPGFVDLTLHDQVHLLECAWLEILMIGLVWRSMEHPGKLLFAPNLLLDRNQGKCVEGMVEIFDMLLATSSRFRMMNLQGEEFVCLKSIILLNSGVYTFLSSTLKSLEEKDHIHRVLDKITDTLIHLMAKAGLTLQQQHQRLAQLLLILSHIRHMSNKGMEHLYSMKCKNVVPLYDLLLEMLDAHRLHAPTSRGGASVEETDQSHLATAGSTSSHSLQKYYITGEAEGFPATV

[33] = biological target: Beta-2 adrenergic receptor (Homo sapiens) (UniProt P07550); assay: Inhibition of human adrenergic beta2 receptor at 10 uM
Chain of Beta-2 adrenergic receptor (Homo sapiens) (P07550 whole entry, looked up): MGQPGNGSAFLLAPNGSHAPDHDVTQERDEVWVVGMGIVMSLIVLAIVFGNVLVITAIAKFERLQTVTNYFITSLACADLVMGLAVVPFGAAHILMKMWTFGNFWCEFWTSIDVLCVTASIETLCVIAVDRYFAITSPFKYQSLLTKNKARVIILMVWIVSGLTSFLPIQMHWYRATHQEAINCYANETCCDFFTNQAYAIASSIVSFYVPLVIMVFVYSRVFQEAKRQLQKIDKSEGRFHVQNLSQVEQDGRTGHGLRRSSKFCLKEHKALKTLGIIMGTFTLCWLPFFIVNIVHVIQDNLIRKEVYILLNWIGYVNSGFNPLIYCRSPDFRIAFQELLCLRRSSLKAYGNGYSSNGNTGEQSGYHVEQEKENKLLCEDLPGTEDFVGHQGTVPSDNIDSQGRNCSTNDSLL

[34] = biological target: 5-hydroxytryptamine receptor 2B (Homo sapiens) (UniProt P41595); assay: Inhibition of human 5HT2B receptor at 10 uM
Chain of 5-hydroxytryptamine receptor 2B (Homo sapiens) (P41595 whole entry): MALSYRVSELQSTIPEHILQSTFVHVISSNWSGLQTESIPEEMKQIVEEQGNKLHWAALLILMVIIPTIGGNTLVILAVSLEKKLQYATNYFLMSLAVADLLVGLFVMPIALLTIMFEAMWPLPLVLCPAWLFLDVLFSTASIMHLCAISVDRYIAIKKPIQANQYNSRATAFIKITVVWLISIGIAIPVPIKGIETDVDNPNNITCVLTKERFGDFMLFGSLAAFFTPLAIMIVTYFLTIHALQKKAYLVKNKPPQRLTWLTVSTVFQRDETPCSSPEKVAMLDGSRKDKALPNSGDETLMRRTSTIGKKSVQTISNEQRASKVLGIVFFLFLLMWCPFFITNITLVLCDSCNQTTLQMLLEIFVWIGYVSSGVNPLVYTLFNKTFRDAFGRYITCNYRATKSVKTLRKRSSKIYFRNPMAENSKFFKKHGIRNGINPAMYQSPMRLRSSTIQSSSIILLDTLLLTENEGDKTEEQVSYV

[35] = biological target: 5-hydroxytryptamine receptor 1A (Homo sapiens) (UniProt P08908); assay: Inhibition of human 5HT1A receptor at 10 uM
[36] = biological target: Sodium-dependent noradrenaline transporter (Homo sapiens) (UniProt P23975); assay: Inhibition of human norepinephrine transporter at 10 uM
Chain of Sodium-dependent noradrenaline transporter (Homo sapiens) (P23975 whole entry): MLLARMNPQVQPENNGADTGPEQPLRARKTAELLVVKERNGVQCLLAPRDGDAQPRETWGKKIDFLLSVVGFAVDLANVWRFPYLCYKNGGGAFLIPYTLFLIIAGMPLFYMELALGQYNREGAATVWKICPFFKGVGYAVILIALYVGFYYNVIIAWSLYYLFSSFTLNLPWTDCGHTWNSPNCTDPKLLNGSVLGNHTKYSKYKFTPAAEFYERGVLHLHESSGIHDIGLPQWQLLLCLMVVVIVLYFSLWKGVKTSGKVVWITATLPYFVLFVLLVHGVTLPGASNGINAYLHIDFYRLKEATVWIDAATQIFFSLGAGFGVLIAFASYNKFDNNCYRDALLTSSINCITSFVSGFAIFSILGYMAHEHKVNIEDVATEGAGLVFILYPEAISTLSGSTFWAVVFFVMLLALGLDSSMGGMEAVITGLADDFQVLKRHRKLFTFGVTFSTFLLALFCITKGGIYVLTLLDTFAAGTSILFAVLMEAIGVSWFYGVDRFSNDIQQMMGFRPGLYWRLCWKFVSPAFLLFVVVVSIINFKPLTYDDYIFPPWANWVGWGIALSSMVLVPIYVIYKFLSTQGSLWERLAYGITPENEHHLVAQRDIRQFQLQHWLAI

Rattus norvegicus [37] = species on record: Rattus norvegicus; assay: Inhibition of rat central-type benzodiazepine receptor at 10 uM
[38] = biological target: Beta-1 adrenergic receptor (Homo sapiens) (UniProt P08588); assay: Inhibition of human adrenergic beta-1 receptor at 10 uM

Cc1cc2cc(/N=C(/NC#N)N[C@H]3CCCCN(CC(=O)N4CCCC4)C3=O)ccc2o1
active: Activity (Rattus norvegicus [3]) | Activity (Rattus norvegicus [24]) | Activity (Rattus norvegicus [29]) Dose-dependent effect
inactive: inhibition (Mus musculus) | inhibition [1] | inhibition [2] | inhibition (Rattus norvegicus [4]) | inhibition (Rattus norvegicus [5]) | inhibition [6] | inhibition (Rattus norvegicus [7]) | inhibition (Rattus norvegicus [8]) | inhibition (Rattus norvegicus [9]) | inhibition (Rattus norvegicus [10]) | inhibition [11] | inhibition [13] | inhibition (Rattus norvegicus [14]) | inhibition [15] | inhibition [16] | inhibition [17] | inhibition [18] | inhibition [20] | inhibition [23] | inhibition [25] | inhibition [26] | inhibition (Rattus norvegicus [27]) | inhibition (Rattus norvegicus [28]) | inhibition [30] | inhibition [31] | inhibition [32] | inhibition [33] | inhibition [34] | inhibition [35] | inhibition [36] | inhibition (Rattus norvegicus [37]) | inhibition [38]
> 16 µM: Ki [21]
> 10 µM: Ki [19]
30 µM: EC (Plasma)
6 mg/kg: ED50 (Rattus norvegicus [22])
> 200 µM: IC50 (cells)
25 mg/kg: ED50 (Rattus norvegicus [12])

Reference: ChEMBL document CHEMBL1152385, “Cyanoguanidine-based lactam derivatives as a novel class of orally bioavailable factor Xa inhibitors” (Bioorg Med Chem Lett, 2009)
